SMILES strings stand for the structures. Several values for one entry are separate records, joined by “and”; a condition that tells them apart may be missing. Equal entries are not always repeated. Where two headings read alike, the source gives them in different places.

For orientation: IC50 means the concentration needed to halve the response being measured. For orientation: half-life means how long it takes for the measured level to halve.

Series [1] concerns the target T1, HeLa1A9 cell lysate (Homo sapiens, UniProt O60656).
T1 sequence (O60656 26-530): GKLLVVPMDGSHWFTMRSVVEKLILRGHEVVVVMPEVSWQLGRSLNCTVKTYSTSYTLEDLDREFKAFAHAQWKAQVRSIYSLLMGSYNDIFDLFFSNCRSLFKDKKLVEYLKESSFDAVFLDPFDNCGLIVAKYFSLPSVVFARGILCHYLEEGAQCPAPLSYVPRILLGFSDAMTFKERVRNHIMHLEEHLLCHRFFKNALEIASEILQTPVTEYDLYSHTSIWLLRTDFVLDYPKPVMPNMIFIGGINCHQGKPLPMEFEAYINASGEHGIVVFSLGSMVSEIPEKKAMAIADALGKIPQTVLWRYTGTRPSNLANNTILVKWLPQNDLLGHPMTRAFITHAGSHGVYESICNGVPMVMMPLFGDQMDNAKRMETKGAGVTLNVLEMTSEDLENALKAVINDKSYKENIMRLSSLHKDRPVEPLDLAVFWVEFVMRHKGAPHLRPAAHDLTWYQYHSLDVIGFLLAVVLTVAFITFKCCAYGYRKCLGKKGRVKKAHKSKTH
In words: Glucuronidation kinetics by HeLa1A9 cell lysate. Type of series: in vitro ADME. The settings on record: metabolite propofol-G. Here is the method: The incubation system was slightly modified on the basis of a previously published article ([Qin et al., 2018a]). […] After preincubation at 37°C for 5 min, UDPGA (3.5 mM) was added to the reaction system, and the mixture was incubated for another 30 min. These reactions were terminated by the addition of an equal volume of ice-cold acetonitrile. The mixed samples were centrifuged at 13800 × g for 10 min, and the supernatant was analyzed by ultra-high-performance liquid chromatography (UHPLC). All the experiments were conducted in triplicate.
The enzyme kinetic parameters were obtained by fitting appropriate kinetic models to the experimental data in GraphPad Prism V5 software (San Diego, CA, United States). The best model was selected based on visual inspection of the Eadie–Hofstee plots ([Qin et al., 2018b]). In brief, if the Eadie–Hofstee plot was linear, formation rates (V) of glucuronides at different substrate concentrations (C) were fitted to the standard equations (1): […]
Where Km is the Michaelis–Menten constant, and Vmax is the maximum rate of glucuronidation. The intrinsic clearance (CLint) was computed as Vmax/Km.

In series [2] the target is T2, BCRP (Homo sapiens, UniProt Q9UNQ0).
T2 construct: BCRP, MRP1, MRP3, and MRP4 were detected in both wild-type HeLa and HeLa1A9 cells; endogenous in cells; host or cells: HeLa1A9 cells
T2 sequence (Q9UNQ0 1-655): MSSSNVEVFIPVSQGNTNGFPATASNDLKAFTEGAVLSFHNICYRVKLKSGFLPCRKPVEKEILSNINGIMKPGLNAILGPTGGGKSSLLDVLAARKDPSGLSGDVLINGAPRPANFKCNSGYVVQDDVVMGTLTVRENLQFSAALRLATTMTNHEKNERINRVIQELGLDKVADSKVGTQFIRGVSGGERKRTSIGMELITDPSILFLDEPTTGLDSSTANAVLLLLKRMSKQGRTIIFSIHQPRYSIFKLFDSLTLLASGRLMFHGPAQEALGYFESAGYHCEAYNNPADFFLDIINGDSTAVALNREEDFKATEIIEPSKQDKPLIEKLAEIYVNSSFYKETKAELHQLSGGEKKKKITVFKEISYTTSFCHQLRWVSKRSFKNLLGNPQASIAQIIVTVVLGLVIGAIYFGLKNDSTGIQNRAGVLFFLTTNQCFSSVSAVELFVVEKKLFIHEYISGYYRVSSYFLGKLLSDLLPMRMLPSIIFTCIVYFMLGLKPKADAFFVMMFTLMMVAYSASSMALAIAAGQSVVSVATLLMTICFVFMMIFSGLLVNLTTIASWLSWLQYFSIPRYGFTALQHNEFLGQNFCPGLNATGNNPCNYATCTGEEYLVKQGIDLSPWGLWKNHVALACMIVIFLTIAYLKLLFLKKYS
In words: shRNA-mediated partial silencing of BCRP in HeLa1A9 cells, glucuronide excretion. It counts as cell-based. The following applies: fraxetin 10 μM. The procedure:
(§1) The HeLa1A9 cells were pretreated and incubated with fraxetin solutions as reported previously ([Jiang et al., 2011]). Before assays, the HeLa1A9 cells were washed twice with prewarmed (37°C) Hank’s balanced salt solution (HBSS; pH = 7.4). After that, fraxetin (10 μM) dissolved in 2 mL of HBSS was incubated with the HeLa1A9 cells. At each time point (30, 60, 90, and 120 min), 200 μL of the culture supernatant from each well was collected as samples, and an equal volume of a loading media was used to replenish each well. Next, the collected samples were each mixed with 100 μL ice-cold acetonitrile. The supernatants were subjected to UHPLC analysis after centrifugation (10 min at 13800 × g).
(§2) In glucuronide excretion assays, biological inhibition mainly including shRNA-mediated partial silencing of BCRP and MRPs in HeLa cells was usually performed to evaluate the role of each efflux transporter ([Quan et al., 2015]; [Sun et al., 2015]; [Qin et al., 2018a]). Established shRNA_BCRP, shRNA_MRP1, shRNA_MRP3, and shRNA_MRP4 plasmids were transiently transfected into HeLa1A9 cells to develop the stably shRNA-transfected cell lines, named HeLa1A9-BCRP-shRNA cells, HeLa1A9-MRP1-shRNA, HeLa1A9-MRP3-shRNA, and HeLa1A9-MRP4-shRNA cells, respectively. […]
(§3) In addition, the excretion rate of intracellular glucuronides was calculated using Equ. […]

The target of series [3] is T3, MRP1 (Homo sapiens, UniProt P33527).
T3 construct: BCRP, MRP1, MRP3, and MRP4 were detected in both wild-type HeLa and HeLa1A9 cells; endogenous in cells
T3 sequence (P33527 whole entry): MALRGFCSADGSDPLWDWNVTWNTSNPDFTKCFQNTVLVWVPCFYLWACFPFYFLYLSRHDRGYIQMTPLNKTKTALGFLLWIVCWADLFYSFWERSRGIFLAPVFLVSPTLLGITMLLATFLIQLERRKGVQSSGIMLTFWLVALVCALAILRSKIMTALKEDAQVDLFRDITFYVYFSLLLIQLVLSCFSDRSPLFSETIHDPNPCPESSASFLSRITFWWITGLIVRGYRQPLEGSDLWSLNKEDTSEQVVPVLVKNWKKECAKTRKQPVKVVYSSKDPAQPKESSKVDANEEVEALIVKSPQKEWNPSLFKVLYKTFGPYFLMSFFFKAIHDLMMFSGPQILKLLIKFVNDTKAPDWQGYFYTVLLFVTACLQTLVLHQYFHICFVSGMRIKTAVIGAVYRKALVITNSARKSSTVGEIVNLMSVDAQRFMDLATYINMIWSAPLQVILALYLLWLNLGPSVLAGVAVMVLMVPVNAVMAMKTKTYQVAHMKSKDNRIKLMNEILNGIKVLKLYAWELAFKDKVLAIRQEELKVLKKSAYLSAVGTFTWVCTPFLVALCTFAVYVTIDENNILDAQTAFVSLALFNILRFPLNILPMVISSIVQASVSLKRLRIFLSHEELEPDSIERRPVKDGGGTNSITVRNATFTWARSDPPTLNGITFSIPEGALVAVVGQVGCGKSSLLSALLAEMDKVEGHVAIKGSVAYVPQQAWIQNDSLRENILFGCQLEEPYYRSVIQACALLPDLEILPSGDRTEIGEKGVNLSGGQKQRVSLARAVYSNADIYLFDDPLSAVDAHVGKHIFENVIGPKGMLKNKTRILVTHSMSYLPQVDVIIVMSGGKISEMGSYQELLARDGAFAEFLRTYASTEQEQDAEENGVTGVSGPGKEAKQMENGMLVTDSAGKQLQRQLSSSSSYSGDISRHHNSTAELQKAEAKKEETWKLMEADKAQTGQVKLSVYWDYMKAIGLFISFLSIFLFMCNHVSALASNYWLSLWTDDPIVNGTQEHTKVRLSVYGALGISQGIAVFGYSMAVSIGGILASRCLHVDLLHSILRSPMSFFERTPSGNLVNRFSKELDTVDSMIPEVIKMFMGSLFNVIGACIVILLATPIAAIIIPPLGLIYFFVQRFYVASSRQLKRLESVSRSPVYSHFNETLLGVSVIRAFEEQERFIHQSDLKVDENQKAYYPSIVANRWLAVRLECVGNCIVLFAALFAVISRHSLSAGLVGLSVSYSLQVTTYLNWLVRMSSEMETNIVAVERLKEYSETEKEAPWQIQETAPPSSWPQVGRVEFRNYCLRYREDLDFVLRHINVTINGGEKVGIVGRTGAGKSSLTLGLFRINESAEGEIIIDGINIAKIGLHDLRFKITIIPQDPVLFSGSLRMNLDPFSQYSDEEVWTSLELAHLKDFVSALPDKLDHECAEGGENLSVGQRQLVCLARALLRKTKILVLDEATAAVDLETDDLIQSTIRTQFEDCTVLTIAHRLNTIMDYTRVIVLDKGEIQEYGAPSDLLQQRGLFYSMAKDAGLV
As to the kind of experiment: shRNA-mediated partial silencing of MRP1 in HeLa1A9 cells, glucuronide excretion. Type of series: cell-based. The settings on record: fraxetin 10 μM. The procedure:
as §1, §2, §3

Series [4] relates to HeLa1A9 cells. In words: Toxicity toward HeLa1A9 cells during excretion experiments. Type of series: cell-based, human. The following applies: within the experimental concentration range.
For series [5], the system named is cystathionine β-synthase. Details: method as in Thorson et al., 2013. The settings on record: cystathionine β-synthase inhibitor; ref Thorson et al., 2013; cited from earlier work.
The target in series [6] is α-glucosidase. Details: method as in Milella et al., 2016. The following applies: versus acarbose, a well-known α-glucosidase inhibitor; ref Milella et al., 2016; cited from earlier work.
Details of series [7]: method as in Wang H. et al., 2016. The following applies: rats; after oral administration of fraxin 50 mg/kg; ref Wang H. et al., 2016; cited from earlier work.
For series [8], the system named is UDP-glucuronosyltransferase 1A9 (UGT1A9). On the set-up: method as in Xia et al., 2014. The settings on record: ref Xia et al., 2014, cited from earlier work.
In series [9] the test system is BCRP. Details: method as in Sjöstedt et al., 2016. The following applies: ref Sjöstedt et al., 2016; cited from earlier work.
The test system of series [10] is MRP2. Details: method as in Sjöstedt et al., 2016. The settings on record: ref Sjöstedt et al., 2016; cited from earlier work.

Turning to `CC(C)c1cccc(C(C)C)c1O` [propofol], the Vmax in [1] was 3.2 ± 0.2 (^aaa) pmol/min/mg.

In the case of `COc1cc2ccc(=O)oc2c(O)c1O` [fraxetin], the “changes in excretion rates, intracellular glucuronides and fmet values” in series [2] and in series [3] was “did not cause any changes” in each case. Also, in series [4], the “toxicity toward HeLa1A9 cells” value was “no significant toxicity”. Besides, in series [5], the IC50 was 134 µM. Besides, the “half-maximal inhibitory concentration (IC50) compared with acarbose” value in [6] is on record as “significantly lower”. The half-life in series [7] is reported as 11 h. Further, the maximal plasma concentration in series [7] was 2250 ng/mL and ~11 μM. Besides, the values for the CLint in series [8] (formation of fraxetin-7-O-glucuronide by UGT1A9) and in [8] (formation of fraxetin-8-O-glucuronide by UGT1A9) were 42 μL/min per milligram of protein and 300 μL/min per milligram of protein, respectively. For the same molecule, the “inhibitory action on transporter” value in series [9] and in series [10] was “absence of an inhibitory action” each time.

The values are drawn from publication PMC6515931, “The Efflux Mechanism of Fraxetin-O-Glucuronides in UGT1A9-Transfected HeLa Cells: Identification of Multidrug Resistance-Associated Proteins 3 and 4 (MRP3/4) as the Important Contributors” (Frontiers in Pharmacology, 2019).
